This note sets out measurements from patent US20160067209A1, “PTEROCARPAN COMPOUND OR PHARMACEUTICALLY ACCEPTABLE SALT THEREOF AND PHARMACEUTICAL COMPOSITION FOR PREVENTION OR TREATMENT OF METABOLIC DISEASE OR COMPLICATION THEREOF, OR FOR ANTIOXIDANT CONTAINING THE SAME AS AN ACTIVE INGREDIENT” (KOREA RESEARCH INSTITUTE OF BIOSCIENCE AND BIOTECHNOLOGY, priority 2010, published 2016).

The target of one experiment is T1, hACAT-1 (Homo sapiens, UniProt P35610).
T1 construct: made in house; host or cells: Hi5 insect cells (baculovirus; virus produced in sf9), microsome fraction
T1 sequence (P35610 1-550): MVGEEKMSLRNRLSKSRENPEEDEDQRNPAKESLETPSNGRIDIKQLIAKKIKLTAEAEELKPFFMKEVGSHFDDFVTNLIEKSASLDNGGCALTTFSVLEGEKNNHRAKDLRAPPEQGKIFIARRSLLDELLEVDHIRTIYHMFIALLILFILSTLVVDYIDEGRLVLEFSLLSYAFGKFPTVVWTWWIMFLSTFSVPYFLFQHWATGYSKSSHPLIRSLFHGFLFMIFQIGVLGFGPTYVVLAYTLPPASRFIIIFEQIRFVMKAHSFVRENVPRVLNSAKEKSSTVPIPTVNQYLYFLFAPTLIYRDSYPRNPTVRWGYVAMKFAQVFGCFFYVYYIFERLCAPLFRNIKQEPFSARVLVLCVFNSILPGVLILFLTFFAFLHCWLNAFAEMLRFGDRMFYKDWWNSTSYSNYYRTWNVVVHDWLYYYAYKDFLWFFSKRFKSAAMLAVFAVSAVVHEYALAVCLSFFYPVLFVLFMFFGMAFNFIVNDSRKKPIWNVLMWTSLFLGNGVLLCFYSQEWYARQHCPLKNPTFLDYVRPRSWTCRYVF
Put plainly: hACAT inhibitory activity, microsome fraction of Hi5 cells, [1-14C] oleoyl-CoA substrate. Conditions: for inhibition at 100 µM: read-out: Inhibitory activity at 100 μM (%) hACAT1. Format: biochemical. The procedure: (§1) cDNA of each hACAT-1 and hACAT-2 obtained by human liver cDNA library screening was inserted into baculovirus vector, which was then introduced into the insect cell sf9 to produce target virus. The recombinant virus of each hACAT-1 and hACAT-2 was separated by plaque purification and then amplified three times to increase titer of viral stock.
(§2) To separate microsome fractions from the cultured Hi5 cells over-expressing hACAT-1 and hACAT-2, centrifugation was performed at 500 rpm for 15 minutes. The collected cells were lysed by quick-freezing/quick-thawing in hypotonic buffer, followed by ultracentrifugation at 100,000 rpm for one hour. The obtained microsome fractions were suspended in hypotonic buffer to make the protein concentration to be 8 mg/ml, which was stored in −70° C. freezer until use.
(§3) Human ACAT (hACAT) activity was measured by the method of Brecher & Chan (P. Brecher and C. Chan, Biochem. Biophys. Acta, 1980, 617: 458) with slight modification using [1-^14C] oleoyl-CoA (56.0 ρCi/μmol; Amersham) as a substrate. 10 μl of each of the pterocarpan compounds represented by Formula 2-Formula 5 obtained in Example 1 in dimethylsulfoxide (DMSO) was mixed with 4.0 μl of the microsome solution obtained in step 1, 20.0 μl a of assay buffer (0.5 M KH2PO4, 10 mM DTT, pH 7.4; Sigma), 15.0 μl of bovine serum albumin (BSA, stock solution conc. 40 mg/ml; Sigma), 2.0 μl of cholesterol (stock solution conc. 20 mg/ml; Sigma), and 41.0 μl of distilled water, followed by pre-reaction at 37° C. for 15 minutes. In this assay, the negative control was used the DMSO alone, and the positive control was used a known ACAT inhibitor, oleic acid anilide.
(§4) Eight (8) μl of [1-^14C] oleoyl-CoA (0.05 μCi, final conc. 10.0 μM) was added to the above reaction mixture, followed by reaction at 37° C. for 30 minutes. The reaction was terminated by adding 1 ml of isopropanol:heptane mixed solution (4:1(v/v)). Six hundred (600) μl of heptane and 200 μl of 0.1 M KH2PO4 (pH 7.4) were added thereto and the reaction mixture was vortexed vigorously and centrifuged at 300 rpm for 5 minutes. The obtained upper phase (100 μl) was added in a scintillation vial, to which 4 ml of scintillation solution (Lipoluma, Lumac Co.) were added. Radioactivity of the upper phase was measured by 1450 Microbeta liquid scintillation counter (Wallacoy).
(§5) hACAT activity was calculated based on the radioactivity, the amount of synthesized cholesteryl oleated, measured above and expressed as a defined unit, pico mole per 1 mg of protein for 1 minute (pico mole/minute/mg protein).

The target of the next experiment is T2, hACAT-2 (Homo sapiens, UniProt O75908).
T2 construct: made in house; host or cells: Hi5 insect cells (baculovirus; virus produced in sf9), microsome fraction
T2 sequence (O75908 1-522): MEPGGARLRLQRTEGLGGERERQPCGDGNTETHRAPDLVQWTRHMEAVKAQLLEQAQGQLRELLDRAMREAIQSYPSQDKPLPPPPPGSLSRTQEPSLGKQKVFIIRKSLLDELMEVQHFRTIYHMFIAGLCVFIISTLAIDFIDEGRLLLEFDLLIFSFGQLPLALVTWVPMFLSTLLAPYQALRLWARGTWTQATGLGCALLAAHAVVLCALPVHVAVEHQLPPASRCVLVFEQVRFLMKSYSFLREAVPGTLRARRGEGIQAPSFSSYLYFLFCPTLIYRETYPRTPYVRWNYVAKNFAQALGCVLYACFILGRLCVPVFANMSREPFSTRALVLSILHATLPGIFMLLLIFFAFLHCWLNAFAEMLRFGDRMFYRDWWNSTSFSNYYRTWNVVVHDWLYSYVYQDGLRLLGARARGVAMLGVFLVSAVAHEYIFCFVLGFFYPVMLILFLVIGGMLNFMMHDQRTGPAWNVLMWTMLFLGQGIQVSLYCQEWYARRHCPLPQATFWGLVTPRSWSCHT
The description is as above. It counts as biochemical. Particulars: read-out: Inhibitory activity at 100 μM (%) hACAT2. The procedure: as §1, §2, §3, §4, §5

In the next experiment the test system is LDL. Kind of experiment: LDL anti-oxidative activity, Cu-mediated LDL-oxidation, TBA method. It counts as biochemical, human. Particulars: CuSO4, 37° C., 4 hours, MDA by TBA; read-out: LDL-oxidation inhibitory activity (IC50). The procedure:
Cu^2+ has been known to induce LDL-oxidation (Cu-mediated LDL-oxidation). In this invention, dialdehyde, the oxide of unsaturated fatty acid, generated during LDL-oxidation was measured by TBA (thiobarbituric acid) method to investigate the anti-oxidative activity of the pterocarpan compound isolated from soybean leaves (Packer, L. Ed. (1994) Methods in Enzymology Vol. 234, Oxygen radicals in biological systems Part D. Academic press, San Diego).
Three hundred (300) ml of human plasma were centrifuged at 100,000×g for 24 hours to remove floating VLDL/chylomicron layer in upper part. The specific gravity of the remaining solution was adjusted to […], followed by re-centrifugation at 100,000×g for 24 hours, and 25 ml of the floating LDL (1.5-2.5 mg protein/ml) in upper layer was separated.
Twenty (20) μl of the separated LDL (protein conc. 50-100 μg/ml) was mixed with 210 μl of 10 mM PBS, to which 10 μl of each of the pterocarpan compounds represented by Formula 2-Formula 5 of the present invention was added respectively.
The pterocarpan compounds were dissolved in DMSO, which were further diluted properly for the experiment. In this assay, the negative control was used the DMSO only, while the positive control was used a known LDL-antioxidant, probucol.
Ten (10) μl of 0.25 mM CuSO4 was added to the above reaction mixture, followed by reaction at 37° C. for 4 hours. The reaction was terminated by adding 1 ml of 20% trichloroacetic acid (TCA) solution. One (1) ml of 0.67% thiobarbituric acid (TBA) dissolved in 0.05 N NaOH solution was added thereto, followed by stirring for 10 seconds. Then, the reaction mixture was heated at 95° C. for 5 minutes to induce color development. The solution was cooled down with iced water and centrifuged at 3,000 rpm for 5 minutes to separate supernatant. The amount of malondialdehyde (MDA) generated by the color development was calculated by measuring optical density at 540 nm (OD540) with UV-VIS Spectrophotometer.
PBS standard solution containing 0-10 nmol MDA was prepared by […] with tetramethoxypropane malonaldehyde bis (dimethylacetal) stock solution. Color development was induced with the standard solution, followed by measuring OD540. The generated MDA was quantified by using the standard curve in experiments with the pterocarpan compound of the present invention.

pIC50: −log10 of the molar value.

For `C=C(C)c1cc2cc3c(cc2o1)OC[C@@]1(O)c2ccc(O)cc2O[C@@H]31` [Formula 2, (6aS,11aS)-2-(pro-1-pene-2-yl)-6a,11a-dihydro-6H-benzofuro[3,2-c]furo[3,2-g]chromene-6a,9-diol], the inhibition at 100 µM on hACAT-1 turned out to be 29.7%; on hACAT-2, 22.9%. In addition, the pIC50 in the experiment on LDL was 4.37.

Turning to `CC(C)=CCc1c(O)ccc2c1oc(=O)c1c3ccc(O)cc3oc21` [Formula 5, phaseol], the “Inhibitory activity at 100 μM (%) hACAT1” value at hACAT-1 (100 µM) is on record as 85.9%. In addition, the inhibition at 100 µM on hACAT-1 is 85.8%; at hACAT-2, 67.4%. In addition, in the experiment on LDL, the pIC50 is 6.00.

For `COc1cc(O)cc2oc(=O)c3c4ccc(O)cc4oc3c12` [Formula 4, isotrifoliol], the figures for the inhibition at 100 µM on hACAT-1 and on hACAT-2 were 14.9% and 7.9%, respectively. Moreover, in the experiment with LDL, the negative-log IC50 (pIC50) was 5.35.

Regarding `COc1ccc2c(c1)O[C@H]1c3c(cc(O)c(CC=C(C)C)c3OC)OC[C@@]21O` [Formula 3], the inhibition at 100 µM worked out at 35.2% on hACAT-1 and 20.3% on hACAT-2. For the same molecule, the negative-log IC50 (pIC50) in the experiment on LDL is 4.29.

The pIC50 is the IC50 on a negative log10 scale, so that one unit is a factor of ten.
